Experimental data taken from PubChem BioAssay AID2060907 (Molecular Pharmacology Branch, DTP, NCI, 2025).

System: 388556-164-R-J1-PDC complex spheroid viability
Assay: Anticancer human tumor 388556-164-R-J1-PDC patient-derived colon adenocarcinoma cell line growth inhibition [RAS]
Conditions: for IC50: curve of first compound; for viability, T/C: stronger effect = lower value
Procedure, shortened: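 Multi-cell-type spheroids: tumor cells plus HUVEC endothelial cells and mesenchymal stem cells. RAS-pathway inhibitors were combined with targeted agents, each dosed in half-log steps down from clinical Cmax, or from 10 microM when Cmax was unknown.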
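Note: spheroids exposed to compound for 7 days before readout.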
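Throughout, for viability, T/C: 100% = DMSO vehicle control luminescence.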

With `CC(=O)OC12COC1CC(O)C1(C)C(=O)C(O)C3=C(C)C(OC(=O)C(O)C(NC(=O)OC(C)(C)C)c4ccccc4)CC(O)(C(OC(=O)c4ccccc4)C21)C3(C)C` (centres undefined) + CCn1c(-c2cc(N3CCN(C)CC3)cnc2C(C)OC)c2c3cc(ccc31)-c1csc(n1)CC(NC(=O)C1CC1C)C(=O)N1CCCC(N1)C(=O)OCC(C)(C)C2 the IC50 (second compound 0.000949 µM) was > 10 µM, the IC50 (second compound 0.003 µM) was > 10 µM and the IC50 (second compound 0.00949 µM) was 0.51 µM. The IC50 (second compound 0.03 µM) was < 0.0316 µM, the IC50 (second compound 0.0949 µM) was < 0.0316 µM and the IC50 (second compound 0.3 µM) was < 0.0316 µM. For the same molecule, the viability, T/C (second compound 0.000949 µM, first compound 0.0316 µM) was 77.2%, the viability, T/C (second compound 0.000949 µM, first compound 0.1 µM) was 63.2% and the viability, T/C (second compound 0.000949 µM, first compound 0.316 µM) was 63.7%. The viability, T/C (second compound 0.000949 µM, first compound 1 µM) was 66.1%, the viability, T/C (second compound 0.000949 µM, first compound 3.16 µM) was 69.2% and the viability, T/C (second compound 0.000949 µM, first compound 10 µM) was 59.6%. It also gave a viability, T/C (second compound 0.003 µM, first compound 0.0316 µM) of 76.4%, a viability, T/C (second compound 0.003 µM, first compound 0.1 µM) of 61.6% and a viability, T/C (second compound 0.003 µM, first compound 0.316 µM) of 54%. It also gave a viability, T/C (second compound 0.003 µM, first compound 1 µM) of 59.1%, a viability, T/C (second compound 0.003 µM, first compound 3.16 µM) of 55.1% and a viability, T/C (second compound 0.003 µM, first compound 10 µM) of 50.4%. The viability, T/C (second compound 0.00949 µM, first compound 0.0316 µM) was 65.3%, the viability, T/C (second compound 0.00949 µM, first compound 0.1 µM) was 57.1% and the viability, T/C (second compound 0.00949 µM, first compound 0.316 µM) was 52.8%. For the same molecule, the viability, T/C (second compound 0.00949 µM, first compound 1 µM) was 43.9%, the viability, T/C (second compound 0.00949 µM, first compound 3.16 µM) was 50.4% and the viability, T/C (second compound 0.00949 µM, first compound 10 µM) was 41.2%. It also gave a viability, T/C (second compound 0.03 µM, first compound 0.0316 µM) of 46.9%, a viability, T/C (second compound 0.03 µM, first compound 0.1 µM) of 42.3% and a viability, T/C (second compound 0.03 µM, first compound 0.316 µM) of 40.1%. The viability, T/C (second compound 0.03 µM, first compound 1 µM) was 44.1%, the viability, T/C (second compound 0.03 µM, first compound 3.16 µM) was 41.2% and the viability, T/C (second compound 0.03 µM, first compound 10 µM) was 32%. The viability, T/C (second compound 0.0949 µM, first compound 0.0316 µM) was 44.1%, the viability, T/C (second compound 0.0949 µM, first compound 0.1 µM) was 34.9% and the viability, T/C (second compound 0.0949 µM, first compound 0.316 µM) was 34.9%. The viability, T/C (second compound 0.0949 µM, first compound 1 µM) was 32.4%, the viability, T/C (second compound 0.0949 µM, first compound 3.16 µM) was 31.1% and the viability, T/C (second compound 0.0949 µM, first compound 10 µM) was 25.4%. For the same molecule, the viability, T/C (second compound 0.3 µM, first compound 0.0316 µM) was 27.4%, the viability, T/C (second compound 0.3 µM, first compound 0.1 µM) was 27.9% and the viability, T/C (second compound 0.3 µM, first compound 0.316 µM) was 28%. For the same molecule, the viability, T/C (second compound 0.3 µM, first compound 1 µM) was 30.1%, the viability, T/C (second compound 0.3 µM, first compound 3.16 µM) was 27.8% and the viability, T/C (second compound 0.3 µM, first compound 10 µM) was 24.4%.
With `CC(=O)OC12COC1CC(O)C1(C)C(=O)C(O)C3=C(C)C(OC(=O)C(O)C(NC(=O)OC(C)(C)C)c4ccccc4)CC(O)(C(OC(=O)c4ccccc4)C21)C3(C)C` (centres undefined) + C#Cc1c(F)ccc2cc(O)cc(-c3ncc4c(N5CC6CCC(C5)N6)nc(OCC56CCCN5CC(F)C6)nc4c3F)c12 the IC50 (second compound 0.0316 µM) was > 10 µM, the IC50 (second compound 0.1 µM) was > 10 µM and the IC50 (second compound 0.316 µM) was > 10 µM. The IC50 (second compound 1 µM) was > 10 µM, the IC50 (second compound 3.16 µM) was 6.13 µM and the IC50 (second compound 10 µM) was 0.811 µM. It also gave a viability, T/C (second compound 0.0316 µM, first compound 0.0316 µM) of 80.7%, a viability, T/C (second compound 0.0316 µM, first compound 0.1 µM) of 80.8% and a viability, T/C (second compound 0.0316 µM, first compound 0.316 µM) of 76.1%. It also gave a viability, T/C (second compound 0.0316 µM, first compound 1 µM) of 76.1%, a viability, T/C (second compound 0.0316 µM, first compound 3.16 µM) of 74.5% and a viability, T/C (second compound 0.0316 µM, first compound 10 µM) of 75.1%. It also gave a viability, T/C (second compound 0.1 µM, first compound 0.0316 µM) of 87.6%, a viability, T/C (second compound 0.1 µM, first compound 0.1 µM) of 80.8% and a viability, T/C (second compound 0.1 µM, first compound 0.316 µM) of 71.5%. The viability, T/C (second compound 0.1 µM, first compound 1 µM) was 75.2%, the viability, T/C (second compound 0.1 µM, first compound 3.16 µM) was 78.9% and the viability, T/C (second compound 0.1 µM, first compound 10 µM) was 75.4%. For the same molecule, the viability, T/C (second compound 0.316 µM, first compound 0.0316 µM) was 82.5%, the viability, T/C (second compound 0.316 µM, first compound 0.1 µM) was 73.7% and the viability, T/C (second compound 0.316 µM, first compound 0.316 µM) was 67.4%. It also gave a viability, T/C (second compound 0.316 µM, first compound 1 µM) of 69.7%, a viability, T/C (second compound 0.316 µM, first compound 3.16 µM) of 77.1% and a viability, T/C (second compound 0.316 µM, first compound 10 µM) of 59%. It also gave a viability, T/C (second compound 1 µM, first compound 0.0316 µM) of 78.5%, a viability, T/C (second compound 1 µM, first compound 0.1 µM) of 74.4% and a viability, T/C (second compound 1 µM, first compound 0.316 µM) of 59.6%. It also gave a viability, T/C (second compound 1 µM, first compound 1 µM) of 67.4%, a viability, T/C (second compound 1 µM, first compound 3.16 µM) of 69% and a viability, T/C (second compound 1 µM, first compound 10 µM) of 49.8%. For the same molecule, the viability, T/C (second compound 3.16 µM, first compound 0.0316 µM) was 72.8%, the viability, T/C (second compound 3.16 µM, first compound 0.1 µM) was 58.2% and the viability, T/C (second compound 3.16 µM, first compound 0.316 µM) was 59%. It also gave a viability, T/C (second compound 3.16 µM, first compound 1 µM) of 65.8%, a viability, T/C (second compound 3.16 µM, first compound 3.16 µM) of 63.3% and a viability, T/C (second compound 3.16 µM, first compound 10 µM) of 40.2%. The viability, T/C (second compound 10 µM, first compound 0.0316 µM) was 56.6%, the viability, T/C (second compound 10 µM, first compound 0.1 µM) was 48.2% and the viability, T/C (second compound 10 µM, first compound 0.316 µM) was 52.4%. The viability, T/C (second compound 10 µM, first compound 1 µM) was 54.7%, the viability, T/C (second compound 10 µM, first compound 3.16 µM) was 40.1% and the viability, T/C (second compound 10 µM, first compound 10 µM) was 35.5%.
